Patent publication US20260262643A1, “HERBICIDAL BENZOXAZINES” (FMC CORPORATION, priority 2022, published 2026)

Key:
ducksalad = experiment: Test D flooded paddy test; assay type: in vivo, Heteranthera limosa; conditions: 250 g ai/ha, applied to paddy water, visual rating after 13 to 14 days, scale 0 to 100 (0 no effect, 100 complete control)
Method in brief: (§1)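 Plants at the 2-leaf stage were grown in pots flooded to 3 cm, and compound was applied directly into the paddy water, with depth kept throughout. After 13–14 days in a greenhouse, injury was rated visually against untreated controls on a 0–100 scale (100 = complete control); a dash means not tested.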

green foxtail [1] = experiment: Test C preemergence; assay type: in vivo, Setaria viridis; conditions: for Plant response rating, Foxtail, Green: Preemergence; for Foxtail, Green plant response rating: preemergence
Method in brief: (§2)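 Visual injury ratings on a 0–100 scale (100 = complete control) were made against untreated controls 10 days after treatment in the greenhouse. Compounds, formulated with surfactant in non-phytotoxic solvent, were sprayed on soil preemergence or onto one- to two-leaf plants 2–10 cm tall postemergence.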

pigweed, palmer [2] = experiment: Test C preemergence; assay type: in vivo, Amaranthus palmeri; conditions: for Plant response rating, Pigweed, Palmer: Preemergence
Method in brief: as §2

pigweed, palmer [3] = experiment: Test C postemergence; assay type: in vivo, Amaranthus palmeri; conditions: 10 days
Method in brief: as §2

ragweed [4] = experiment: Test C preemergence; assay type: in vivo, Ambrosia artemisiifolia; conditions: for Plant response rating, Ragweed: Preemergence; for Ragweed plant response rating: preemergence
Method in brief: as §2

corn [5] = experiment: Test C postemergence; assay type: in vivo, Zea mays; conditions: 10 days
Method in brief: as §2

kochia [6] = experiment: Test C postemergence; assay type: in vivo, Bassia scoparia; conditions: 10 days
Method in brief: as §2

soybean [7] = experiment: Test C preemergence; assay type: in vivo, Glycine max; conditions: for Plant response rating, Soybean: Preemergence; for Soybean plant response rating: preemergence
Method in brief: as §2

horseweed = experiment: Test C postemergence; assay type: in vivo, Erigeron canadensis; conditions: 10 days
Method in brief: as §2

wheat [8] = experiment: Test C postemergence; assay type: in vivo, Triticum aestivum; conditions: 10 days
Method in brief: as §2

blackgrass [9] = experiment: Test C postemergence; assay type: in vivo, Alopecurus myosuroides; conditions: 10 days
Method in brief: as §2

ryegrass, Italian [10] = experiment: Test C preemergence; assay type: in vivo, Lolium multiflorum; conditions: for Plant response rating, Ryegrass, Italian: Preemergence; for Ryegrass, Italian plant response rating: preemergence
Method in brief: as §2

blackgrass [11] = experiment: Test C preemergence; assay type: in vivo, Alopecurus myosuroides; conditions: for Plant response rating, Blackgrass: Preemergence; for Blackgrass plant response rating: preemergence
Method in brief: as §2

corn [12] = experiment: Test C preemergence; assay type: in vivo, Zea mays; conditions: for Plant response rating, Corn: Preemergence; for Corn plant response rating: preemergence
Method in brief: as §2

oat, wild [13] = experiment: Test C postemergence; assay type: in vivo, Avena fatua; conditions: 10 days
Method in brief: as §2

oat, wild [14] = experiment: Test C preemergence; assay type: in vivo, Avena fatua; conditions: for Plant response rating, Oat, Wild: Preemergence; for Oat, Wild plant response rating: preemergence
Method in brief: as §2

rice = experiment: Test D flooded paddy test; assay type: in vivo, Oryza sativa; conditions: 250 g ai/ha, applied to paddy water, visual rating after 13 to 14 days, scale 0 to 100 (0 no effect, 100 complete control)
Method in brief: as §1

barnyardgrass [15] = experiment: Test D flooded paddy test; assay type: in vivo, Echinochloa crus-galli; conditions: 250 g ai/ha, applied to paddy water, visual rating after 13 to 14 days, scale 0 to 100 (0 no effect, 100 complete control)
Method in brief: as §1

sedge, umbrella = experiment: Test D flooded paddy test; assay type: in vivo, Cyperus difformis; conditions: 250 g ai/ha, applied to paddy water, visual rating after 13 to 14 days, scale 0 to 100 (0 no effect, 100 complete control)
Method in brief: as §1

kochia [16] = experiment: Test C preemergence; assay type: in vivo, Bassia scoparia; conditions: for Plant response rating, Kochia: Preemergence; for Kochia plant response rating: preemergence
Method in brief: as §2

soybean [17] = experiment: Test C postemergence; assay type: in vivo, Glycine max; conditions: 10 days
Method in brief: as §2

wheat [18] = experiment: Test C preemergence; assay type: in vivo, Triticum aestivum; conditions: for Plant response rating, Wheat: Preemergence; for Wheat plant response rating: preemergence
Method in brief: as §2

barnyardgrass [19] = experiment: Test C postemergence; assay type: in vivo, Echinochloa crusgalli; conditions: 10 days
Method in brief: as §2

ragweed [20] = experiment: Test C postemergence; assay type: in vivo, Ambrosia artemisiifolia; conditions: 10 days
Method in brief: as §2

green foxtail [21] = experiment: Test C postemergence; assay type: in vivo, Setaria viridis; conditions: 10 days
Method in brief: as §2

ryegrass, Italian [22] = experiment: Test C postemergence; assay type: in vivo, Lolium multiflorum; conditions: 10 days
Method in brief: as §2

barnyardgrass [23] = experiment: Test C preemergence; assay type: in vivo, Echinochloa crusgalli; conditions: for Plant response rating, Barnyardgrass: Preemergence; for Barnyardgrass plant response rating: preemergence
Method in brief: as §2

[24] = 500 g ai/ha, visual rating after 10 days, 0 to 100 scale (0 no effect, 100 complete control)
[25] = Test C, 125 g ai/ha, 0 to 100 scale (0 no effect, 100 complete control)
[26] = 125 g ai/ha, postemergence, 0 to 100 scale, 0 no effect, 100 complete control
[27] = Postemergence, 500 g ai/ha, visual 0 to 100 scale (0 no effect, 100 complete control)
[28] = 500 g ai/ha, 0 to 100 scale (0 no effect, 100 complete control)
[29] = 125 g ai/ha, 0 to 100 scale, 0 no effect, 100 complete control
[30] = 500 g ai/ha, postemergence, 0 to 100 scale (0 no effect, 100 complete control)
[31] = Postemergence, 125 g ai/ha, 0 to 100 scale (0 no effect, 100 complete control)

Cc1cn(-c2cccc(C(=O)N3C[C@H](C)Oc4c(C)cccc43)c2)cn1 [Compound 232]
0: Plant response rating, Ducksalad (Flood) (ducksalad) | Plant response rating, Foxtail, Green (green foxtail [1]; [24]) | Foxtail, Green plant response rating (green foxtail [1]; [25]) | Plant response rating, Pigweed, Palmer (pigweed, palmer [2]; [24]) | Plant response rating, Pigweed, Palmer (pigweed, palmer [3]; [26]) | Plant response rating, Ragweed (ragweed [4]; [24]) | Ragweed plant response rating (ragweed [4]; [25]) | Plant response rating, Corn (corn [5]; [26]) | Plant response rating, Corn (corn [5]; [27]) | Plant response rating, Kochia (kochia [6]; [26]) | Plant response rating, Soybean (soybean [7]; [24]) | Soybean plant response rating (soybean [7]; [25]) | Plant response rating, Horseweed (horseweed; [26]) | Plant response rating, Horseweed (horseweed; [27]) | Plant response rating, Blackgrass (blackgrass [9]; [26]) | Plant response rating, Blackgrass (blackgrass [11]; [24]) | Blackgrass plant response rating (blackgrass [11]; [25]) | Plant response rating, Corn (corn [12]; [24]) | Corn plant response rating (corn [12]; [25]) | Plant response rating, Oat, Wild (oat, wild [13]; [26]) | Plant response rating, Oat, Wild (oat, wild [13]; [27]) | Plant response rating, Oat, Wild (oat, wild [14]; [24]) | Oat, Wild plant response rating (oat, wild [14]; [25]) | Plant response rating, Rice (Flood) (rice) | Plant response rating, Barnyardgrass (Flood) (barnyardgrass [15]) | Plant response rating, Sedge, Umbrella (Flood) (sedge, umbrella) | Plant response rating, Kochia (kochia [16]; [24]) | Kochia plant response rating (kochia [16]; [25]) | Plant response rating, Wheat (wheat [18]; [24]) | Wheat plant response rating (wheat [18]; [25]) | Plant response rating, Ragweed (ragweed [20]; [26]) | Plant response rating, Foxtail, Green (green foxtail [21]; [26]) | Plant response rating, Barnyardgrass (barnyardgrass [23]; [24]) | Barnyardgrass plant response rating (barnyardgrass [23]; [25])
60: Plant response rating, Kochia (kochia [6]; [27]) | Plant response rating, Ryegrass, Italian (ryegrass, Italian [22]; [27])
20: Plant response rating, Ryegrass, Italian (ryegrass, Italian [10]; [24]) | Ryegrass, Italian plant response rating (ryegrass, Italian [10]; [25]) | Plant response rating, Barnyardgrass (barnyardgrass [19]; [27])
50: Plant response rating, Blackgrass (blackgrass [9]; [27])
30: Plant response rating, Ragweed (ragweed [20]; [27]) | Plant response rating, Foxtail, Green (green foxtail [21]; [27]) | Plant response rating, Ryegrass, Italian (ryegrass, Italian [22]; [26])
10: Plant response rating, Pigweed, Palmer (pigweed, palmer [3]; [27]) | Plant response rating, Wheat (wheat [8]; [26]) | Plant response rating, Wheat (wheat [8]; [27]) | Plant response rating, Barnyardgrass (barnyardgrass [19]; [26])
100: Plant response rating, Soybean (soybean [17]; [26]) | Plant response rating, Soybean (soybean [17]; [27])

Cc1ccc(-n2cnc(C(C)(C)C#N)n2)cc1C(=O)N1C[C@H](C)Oc2c(Cl)cccc21 [Compound 397]
100: Foxtail, Green plant response rating (green foxtail [1]; [28]) | Plant response rating, Foxtail, Green (green foxtail [1]; [29]) | Pigweed, Palmer plant response rating (pigweed, palmer [2]; 500 g ai/ha, preemergence, 0 to 100 scale (0 no effect, 100 complete control)) | Plant response rating, Pigweed, Palmer (pigweed, palmer [2]; [29]) | Plant response rating, Pigweed, Palmer (pigweed, palmer [3]; [30]) | Plant response rating, Pigweed, Palmer (pigweed, palmer [3]; [31]) | Plant response rating, Kochia (kochia [6]; [30]) | Soybean plant response rating (soybean [7]; [28]) | Kochia plant response rating (kochia [16]; [28]) | Plant response rating, Ragweed (ragweed [20]; [31]) | Barnyardgrass plant response rating (barnyardgrass [23]; [28])
45: Plant response rating, Sedge, Umbrella (Flood) (sedge, umbrella)
80: Ragweed plant response rating (ragweed [4]; [28]) | Plant response rating, Horseweed (horseweed; [30]) | Plant response rating, Blackgrass (blackgrass [9]; [31]) | Plant response rating, Ryegrass, Italian (ryegrass, Italian [10]; [29])
10: Plant response rating, Ducksalad (Flood) (ducksalad) | Plant response rating, Corn (corn [12]; [29]) | Plant response rating, Wheat (wheat [18]; [29])
30: Wheat plant response rating (wheat [18]; [28])
90: Plant response rating, Kochia (kochia [6]; [31]) | Plant response rating, Blackgrass (blackgrass [9]; [30]) | Ryegrass, Italian plant response rating (ryegrass, Italian [10]; [28]) | Blackgrass plant response rating (blackgrass [11]; [28]) | Oat, Wild plant response rating (oat, wild [14]; [28]) | Plant response rating, Kochia (kochia [16]; [29]) | Plant response rating, Foxtail, Green (green foxtail [21]; [30]) | Plant response rating, Foxtail, Green (green foxtail [21]; [31]) | Plant response rating, Barnyardgrass (barnyardgrass [23]; [29])
40: Plant response rating, Horseweed (horseweed; [31]) | Plant response rating, Barnyardgrass (barnyardgrass [19]; [31])
20: Plant response rating, Wheat (wheat [8]; [31]) | Corn plant response rating (corn [12]; [28]) | Plant response rating, Oat, Wild (oat, wild [13]; [31])
50: Plant response rating, Ragweed (ragweed [4]; [29]) | Plant response rating, Barnyardgrass (Flood) (barnyardgrass [15]) | Plant response rating, Soybean (soybean [17]; [31]) | Plant response rating, Ryegrass, Italian (ryegrass, Italian [22]; [31])
60: Plant response rating, Oat, Wild (oat, wild [14]; [29]) | Plant response rating, Barnyardgrass (barnyardgrass [19]; [30])
70: Plant response rating, Corn (corn [5]; [30]) | Plant response rating, Corn (corn [5]; [31]) | Plant response rating, Soybean (soybean [7]; [29]) | Plant response rating, Blackgrass (blackgrass [11]; [29]) | Plant response rating, Oat, Wild (oat, wild [13]; [30])
15: Plant response rating, Rice (Flood) (rice)
